IC50 data for 28 compounds are collected here from patent US20260200928A1, “THERAPEUTIC COMPOUNDS” (Sanofi, priority 2022, published 2026).

pIC50: −log10 of the molar value.

For this assay, the target named is T1, human IL-17A (Homo sapiens, UniProt Q16552).
T1 construct: purchased R&D Systems 7955-IL/CF
T1 sequence (Q16552 24-155): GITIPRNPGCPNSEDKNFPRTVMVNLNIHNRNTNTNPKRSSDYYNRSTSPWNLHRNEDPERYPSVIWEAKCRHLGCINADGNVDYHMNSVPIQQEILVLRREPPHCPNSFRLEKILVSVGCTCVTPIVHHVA
The experiment in a line: IL-17A AlphaLISA competition assay (block of IL-17A binding to its receptor IL-17RA). The note with it: mean IC50 (n≥2), block of IL-17A binding to IL-17RA. A digest of the protocol: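 Bead-based AlphaLISA competition in PBS with 0.05% Tween-20 and 0.1% BSA: compound first meets human IL-17A (7.5 nM stock) for 30 min, then IL-17RA/Fc (5 nM stock) for 90 min, all at room temperature, before acceptor/donor bead capture. IC50 fitted 4-parameter, DMSO and 4 μM reference inhibitor as controls; at least duplicate.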
In general, pIC50 refers to the negative decadic logarithm of the IC50, by convention in mol/L. Low readings indicate a high IC50, high ones a low IC50. Turning to `CCn1nccc1C(=O)NC(C(=O)Nc1cc([C@@H](COC)N2C[C@@H](C(F)(F)F)NC2=O)ccn1)C1CCC(F)CC1` (single isomer, unassigned) [Example 280], the pIC50 is 7.19. For “4-Cyclopropyl-N—((S)-1-((1r,4S)-4-methylcyclohexyl)-2-oxo-2-((5-(((S)-2-oxo-4-(trifluoromethyl)imidazolidin-1-yl)methyl)pyridin-3-yl)amino)ethyl)-1,2,5-oxadiazole-3-carboxamide and 4-Cyclopropyl-N—((R)-1-((1r,4R)-4-methylcyclo-hexyl)-2-oxo-2-((5-(((S)-2-oxo-4-(trifluoromethyl)imidazolidin-1-yl)methyl)pyridin-3-yl)amino)ethyl)-1,2,5-oxadiazole-3-carboxamide [Example 84]”, the pIC50 is 6.43.

`CC(C)(C)OC(=O)NCC1(c2nocc2C(=O)N[C@H](C(=O)Nc2cc(CN3C[C@@H](C(F)(F)F)NC3=O)ccn2)C2CCC(F)(F)CC2)CC1` [Example 19, Tert-butyl ((1-(4-(((S)-1-(4,4-difluorocyclohexyl)-2-oxo-2-((4-(((S)-2-oxo-4-(trifluoromethyl)imidazolidin-1-yl)methyl)pyridin-2-yl)amino)ethyl)-carbamoyl)isoxazol-3-yl)cyclopropyl)methyl)carbamate] showed a pIC50 of 6.07. Compound `Cc1cc(COC(=O)N[C@H](C(=O)Nc2cc(CN3C[C@@H](C(F)(F)F)NC3=O)ccn2)C2CCC(F)(F)CC2)nn1C` [Example 60, (1,5-Dimethyl-1H-pyrazol-3-yl)methyl ((S)-1-(4,4-difluorocyclohexyl)-2-oxo-2-((4-(((S)-2-oxo-4-(trifluoromethyl)imidazolidin-1-yl)methyl)pyridin-2-yl)amino)ethyl)carbamate] showed a negative logarithm of the IC50 (pIC50) of 5.43. `COCC(c1ccnc(NC(=O)[C@@H](NC(=O)c2nccn2C(C)C)[C@H]2CC[C@H](C)CC2)c1)N1C[C@@H](C(F)(F)F)NC1=O` (single isomer, unassigned) [Example 115] had a pIC50 of 7.11. `COCC(c1ccnc(NC(=O)[C@@H](NC(=O)c2nc(Cl)ncc2C)[C@H]2CC[C@H](C)CC2)c1)N1C[C@@H](C(F)(F)F)NC1=O` (single isomer, unassigned) [Example 95]: the pIC50 was 5.26.

`COCC(c1ccnc(NC(=O)[C@@H](NC(=O)c2ccnn2C)[C@H]2CC[C@H](C)CC2)c1)N1C[C@@H](C(F)(F)F)NC1=O` (single isomer, unassigned) [Example 85] had a pIC50 of 7.92. The figure for `Cc1nonc1C(=O)N[C@H](C(=O)Nc1cc(CN2C[C@@H](C(F)(F)F)NC2=O)c(F)cn1)[C@H]1CC[C@H](C)CC1` [Example 62, N-((S)-2-((5-fluoro-4-(((S)-2-oxo-4-(trifluoromethyl)-imidazolidin-1-yl)methyl)-pyridin-2-yl)amino)-1-((1r,4S)-4-methylcyclo-hexyl)-2-oxoethyl)-4-methyl-1,2,5-oxadiazole-3-carboxamide] is 5.85; for `Cn1nccc1C(=O)N[C@H](C(=O)Nc1cc(CNC(=O)CCC(F)(F)F)ccn1)C(C1CC1)C1CC1` [Example 32, (S)—N-(1,1-dicyclopropyl-3-oxo-3-((4-((4,4,4-trifluorobutanamido)-methyl)pyridin-2-yl)amino)propan-2-yl)-1-methyl-1H-pyrazole-5-carboxamide] it is 5.25; for `Cc1cnn(C)c1Cc1ccnc(NC(=O)[C@@H](NC(=O)c2ccnn2C(C)C)[C@H]2CC[C@H](C)CC2)c1` [Example 55, N—((S)-2-((4-((1,4-dimethyl-1H-pyrazol-5-yl)methyl)pyridin-2-yl)amino)-1-((1r,4S)-4-methylcyclohexyl)-2-oxoethyl)-1-isopropyl-1H-pyrazole-5-carboxamide] it is 6.74.

Consider `COCC(c1ccnc(NC(=O)C(NC(=O)C(F)(F)c2ccc(C)cc2)C2CCC(C)CC2)c1)N1CC(C(F)(F)F)NC1=O` (single isomer, unassigned) [Example 149], for which the pIC50 was 6.97. The figure for `COC[C@H](c1ccnc(NC(=O)C(NC(=O)c2nonc2C)C2CCC(F)CC2)c1)N1C[C@@H](C(F)(F)F)NC1=O` (single isomer, unassigned) [Example 287] is 7.33. The figure for `Cn1nccc1C(=O)N[C@H](C(=O)Nc1cc(CN2C[C@@H](C(F)(F)F)NC2=O)c(F)cn1)[C@H]1CC[C@H](C)CC1` [Example 64, N-((S)-2-((5-fluoro-4-(((S)-2-oxo-4-(trifluoromethyl)-imidazolidin-1-yl)methyl)-pyridin-2-yl)amino)-1-((1r,4S)-4-methylcyclo-hexyl)-2-oxoethyl)-1-methyl-1H-pyrazole-5-carboxamide] is 5.91; for `CCc1nonc1C(=O)N[C@H](C(=O)Nc1cc([C@@H](COC)N2C[C@@H](C(F)(F)F)NC2=O)ccn1)C1CCC(F)(F)CC1` [Example 187, N—((S)-1-(4,4-Difluorocyclohexyl)-2-((4-((S)-2-methoxy-1-((S)-2-oxo-4-(trifluoromethyl)imidazolidin-1-yl)ethyl)pyridin-2-yl)amino)-2-oxoethyl)-4-ethyl-1,2,5-oxadiazole-3-carboxamide] it is 7.77; for `Cc1nonc1C(=O)N[C@H](C(=O)Nc1cc(C[C@H]2C[C@@H](C(F)(F)F)NC2=O)ccn1)C1CCC(F)(F)CC1` [Example 221, N-((S)-1-(4,4-difluorocyclohexyl)-2-oxo-2-((4-(((3S,5S)-2-oxo-5-(trifluoromethyl)pyrrolidin-3-yl)methyl)pyridin-2-yl)amino)ethyl)-4-methyl-1,2,5-oxadiazole-3-carboxamide] it is 6.80.

For the compound `COCC(c1ccnc(NC(=O)[C@@H](NC(=O)c2conc2C(C)C)[C@H]2CC[C@H](C)CC2)c1)N1C[C@@H](C(F)(F)F)NC1=O` (single isomer, unassigned) [Example 89], the pIC50 is 7.96.

`CCn1nccc1C(=O)N[C@H](C(=O)Nc1cc(C(COC)NC(=O)CCC(F)(F)F)ccn1)C1CCC(F)(F)CC1` (single isomer, unassigned) [Example 144] had a pIC50 of 5.74. The figure for `COCC(NC(=O)CCC(F)(F)F)c1ccnc(NC(=O)[C@@H](NC(=O)OC(C)(C)C)C2CCC(F)(F)CC2)c1` (single isomer, unassigned) [Example 132] is 5.11; for `Cc1nonc1COC(=O)N[C@H](C(=O)Nc1cc(CN2C[C@@H](C(F)(F)F)NC2=O)ccn1)C1CCC(F)(F)CC1` [Example 70, (4-Methyl-1,2,5-oxadiazol-3-yl)methyl ((S)-1-(4,4-difluorocyclohexyl)-2-oxo-2-((4-(((S)-2-oxo-4-(trifluoromethyl)imidazolidin-1-yl)methyl)pyridin-2-yl)amino)ethyl)carbamate] it is 5.10; for `COCC(c1ccnc(NC(=O)[C@@H](NC(=O)c2nocc2C2CC2)[C@H]2CC[C@H](C)CC2)c1)N1C[C@@H](C(F)(F)F)NC1=O` (single isomer, unassigned) [Example 121] it is 7.64. The result for `CCc1ncoc1C(=O)NC(C(=O)Nc1cc(C[C@H]2C[C@@H](C(F)(F)F)NC2=O)ccn1)C1CCC(F)(F)CC1` (stereo in doubt) [Example 217, N—((S)-1-(4,4-difluorocyclohexyl)-2-oxo-2-((4-(((3S,5S)-2-oxo-5-(trifluoro-methyl)pyrrolidin-3-yl)methyl)pyridin-2-yl)amino)ethyl)-4-ethyloxazole-5-carboxamide] reads 6.33.

Take `COCC(NC(=O)CCC(F)(F)F)c1ccnc(NC(=O)[C@@H](NC(=O)c2ccnn2C(C)C)C2CCC(F)(F)CC2)c1` (single isomer, unassigned) [Example 145]: the pIC50 was 5.87. With `CC(C)n1nccc1C(=O)NC(C(=O)Nc1cc(C(NC(=O)CCC(F)(F)F)C2CC2)ccn1)C1CCC(F)(F)CC1` (stereo not shown) [Example 48, N-(2-((4-(cyclopropyl(4,4,4-trifluorobutanamido)methyl)pyridin-2-yl)amino)-1-(4,4-difluorocyclohexyl)-2-oxoethyl)-1-isopropyl-1H-pyrazole-5-carboxamide], the pIC50 was 6.64. The result for `CC(C)n1nccc1C(=O)N[C@H](C(=O)Nc1cc(C[C@H]2C[C@@H](C(F)(F)F)NC2=O)ccn1)[C@H]1CC[C@H](C)CC1` [Example 156, 1-isopropyl-N—((S)-1-((1r,4S)-4-methylcyclohexyl)-2-oxo-2-((4-(((3S,5S)-2-oxo-5-(trifluoromethyl)pyrrolidin-3-yl)methyl)pyridin-2-yl)amino)ethyl)-1H-pyrazole-5-carboxamide] reads 7.28; that for `O=C(CCC(F)(F)F)NC(c1ccnc(NC(=O)C(NC(=O)c2nonc2C2CC2)C2CCC(F)(F)CC2)c1)C1CC1` (stereo not shown) [Example 46, 4-cyclopropyl-N-(2-((4-(cyclopropyl(4,4,4-trifluorobutan-amido)methyl)pyridin-2-yl)amino)-1-(4,4-difluorocyclohexyl)-2-oxoethyl)-1,2,5-oxadiazole-3-carboxamide], 6.21. The compound `COCC(c1ccnc(NC(=O)C(NC(=O)C(F)(F)c2cnccn2)C2CCC(C)CC2)c1)N1CC(C(F)(F)F)NC1=O` (single isomer, unassigned) [Example 251] showed a pIC50 of 7.48. The figure for `CC1CCC(C(NC(=O)c2nonc2C2CC2)C(=O)Nc2cc(C(C)N3CC(C(F)(F)F)NC3=O)ccn2)CC1` [Example 238, 4-cyclopropyl-N-((S)-1-((1r,4S)-4-methylcyclohexyl)-2-oxo-2-((4-((R)-1-((S)-2-oxo-4-(trifluoromethyl)imidazolidin-1-yl)ethyl)pyridin-2-yl)amino)ethyl)-1,2,5-oxadiazole-3-carboxamide] is 7.85; for `CCc1nocc1C(=O)N[C@H](C(=O)Nc1cc([C@@H](COC)N2C[C@@H](C(F)(F)F)NC2=O)ccn1)[C@H]1CCCC(F)(F)C1` (single isomer, unassigned) [Example 306] it is 7.33.
